Reference: US10221163B2 (priority 2015, dated 2019)
pIC50: −log10 of the molar value. Read-outs that look alike come from different tables or passages of the source.

How the values were obtained:
[1] = system: Pseudomonas aeruginosa efflux− (MB9799), IMP-1; type: cell-based; conditions: C, D serine β-lactamase inhibitor closely related to relebactam; for P. aeruginosa expressing IMP-1, efflux − (MB9799) MITC95: concentration restoring susceptibility to imipenem at 2 μg/mL in the presence of a class A; for Concentration of metallo-β-lactamase inhibitor which restores susceptibility of efflux − (MB9799) strain to imipenem: imipenem at 2 μg/mL, in the presence of a class A
Summary of the method: (§1)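 P. aeruginosa PAO1-derived IMP-1 strains, efflux+ MB9798 and efflux− MB9799, tested by standard microbroth MIC with imipenem and/or ceftazidime fixed, usually at CLSI breakpoint, plus fixed class A/C β-lactamase inhibitor against AmpC. Inhibitor titrated; concentration restoring susceptibility recorded; MB9798/MB9799 fold difference indicates efflux.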

[2] = target: IMP-1 (Serratia marcescens, UniProt P52699); assay: biochemical; type: biochemical; conditions: fluorescence assay, CCF2-FA substrate, 2 pM enzyme, 2 hours at 25° C.; read-out: IMP-1 IC50
Summary of the method: (§2)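 IC50 values derive from 4-parameter fits of percent inhibition against inhibitor concentration on semi-log axes. Activity was monitored by fluorescence with the CCF2-FA substrate after a 2-hour, 25° C incubation of compound, enzyme and substrate.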

[3] = target: NDM-1 (Klebsiella pneumoniae, UniProt C7C422); assay: biochemical; type: biochemical; conditions: fluorescence assay, CCF2-FA substrate, 1 pM enzyme, 2 hours at 25° C.; read-out: NDM-1 IC50
Summary of the method: as §2

[4] = system: Escherichia coli expressing NDM-1 (CLB30005, CLB30016); type: cell-based; conditions: with imipenem 1 μg/ml; for Escherichia coli expressing NDM-1 (CLB30016) MITC95: 95% inhibition of bacterial growth; for Escherichia coli MITC95: NDM-1 strain, 95% inhibition of growth
Summary of the method: (§3)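 Growth by absorbance after 22–24 h at 35°C defined the read-out, with imipenem fixed at 1 μg/ml alongside compound. Inocula came from overnight blood-agar colonies at 35°C, resuspended in saline and diluted 1:100 in 1.1×CAMHB.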

[5] = system: Klebsiella pneumoniae expressing VIM-1 (IHMA599644); type: cell-based; conditions: for Klebsiella pneumoniae expressing VIM-1 (IHMA599644) MITC95: with imipenem 1 μg/ml, 95% inhibition of bacterial growth; for Klebsiella pneumoniae MITC95: VIM-1 strain IHMA599644, with imipenem 1 μg/ml, 95% inhibition of growth
Summary of the method: as §3

[6] = system: Serratia marcescens expressing IMP-1 (CL5741); type: cell-based; conditions: for Serratia marcescens expressing IMP-1 (CL5741) MITC95: with imipenem 1 μg/ml, 95% inhibition of bacterial growth; for Serratia marcescens MITC95: IMP-1 strain CL5741, with imipenem 1 μg/ml, 95% inhibition of growth
Summary of the method: as §3

[7] = system: Pseudomonas aeruginosa efflux+ (MB9798), IMP-1; type: cell-based; parameters: Concentration of metallo-β-lactamase inhibitor which restores susceptibility of efflux + (MB9798) strain to imipenem: unit not given here; conditions: C, D serine β-lactamase inhibitor closely related to relebactam; for P. aeruginosa expressing IMP-1, efflux + (MB9798) MITC95: concentration restoring susceptibility to imipenem at 2 μg/mL in the presence of a class A; for Concentration of metallo-β-lactamase inhibitor which restores susceptibility of efflux + (MB9798) strain to imipenem: imipenem at 2 μg/mL, in the presence of a class A
Summary of the method: as §1

[8] = target: VIM-1 (Pseudomonas aeruginosa (strain ATCC 15692 / DSM 22644 / CIP 104116 / JCM 14847 / LMG 12228 / 1C / PRS 101 / PAO1), UniProt A0A0F7KYQ8); assay: biochemical; conditions: CCF2-FA substrate, 30 pM enzyme, 2 hours at 25° C.
Summary of the method: as §2

[9] = system: Pseudomonas aeruginosa MB9798 vs MB9799
Summary of the method: as §1

[10] = ratio MITC95 PA_9798/MITC95 PA_9799
[11] = fluorescence assay, read-out: VIM-1 IC50
[12] = fold difference between efflux+ (MB9798) and efflux− (MB9799) strains, imipenem at 2 μg/mL

Chain of IMP-1 (P52699 whole entry, looked up, species assumed): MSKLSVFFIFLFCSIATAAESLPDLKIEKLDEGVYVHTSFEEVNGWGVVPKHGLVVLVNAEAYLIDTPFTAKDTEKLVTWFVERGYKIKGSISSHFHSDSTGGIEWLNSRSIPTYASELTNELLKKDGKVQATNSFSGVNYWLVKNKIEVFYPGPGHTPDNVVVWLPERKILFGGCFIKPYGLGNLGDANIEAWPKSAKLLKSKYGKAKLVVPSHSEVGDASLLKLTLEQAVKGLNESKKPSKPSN
Chain of NDM-1 (C7C422 whole entry, looked up, species assumed): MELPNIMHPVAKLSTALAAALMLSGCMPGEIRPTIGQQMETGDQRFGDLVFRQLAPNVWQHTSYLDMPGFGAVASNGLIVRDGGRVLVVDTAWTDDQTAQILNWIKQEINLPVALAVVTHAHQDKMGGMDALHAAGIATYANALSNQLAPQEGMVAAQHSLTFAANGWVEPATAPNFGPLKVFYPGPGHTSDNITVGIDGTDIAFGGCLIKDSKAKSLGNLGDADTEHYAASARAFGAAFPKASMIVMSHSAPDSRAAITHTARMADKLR

Nc1nc2c(-c3ccc(S(=O)(=O)N[C@@H]4CNC[C@@H]4O)c(S(N)(=O)=O)c3-c3nnn[nH]3)cccc2[nH]1 [Example 170, 4-(2-amino-1H-benzo[d]imidazol-4-yl)-N^1-((3R,4S)-4-hydroxypyrrolidin-3-yl)-3-(1H-tetrazol-5-yl)benzene-1,2-disulfonamide]
P. aeruginosa expressing IMP-1, efflux − (MB9799) MITC95 [1]: 0.7813 µM
pIC50 [2]: 8.95
pIC50 [3]: 10.10
Escherichia coli expressing NDM-1 (CLB30016) MITC95 [4]: 0.7813 µM
Klebsiella pneumoniae expressing VIM-1 (IHMA599644) MITC95 [5]: 1.563 µM
Serratia marcescens expressing IMP-1 (CL5741) MITC95 [6]: 0.7813 µM
P. aeruginosa expressing IMP-1, efflux + (MB9798) MITC95 [7]: 0.7813 µM
pIC50 ([8]; VIM-1 IC50, fluorescence assay): 9.59
Efflux ratio [9, 10]: 1.00

NC[C@@H](N)CNS(=O)(=O)c1ccc(-c2cccc(-c3n[nH]c(N)n3)c2)c(-c2nn[nH]n2)c1S(N)(=O)=O [Example 230, (R)-3′-(5-amino-1H-1,2,4-triazol-3-yl)-N4-(2,3-diaminopropyl)-2-(2H-tetrazol-5-yl)-[1,1′-biphenyl]-3,4-disulfonamide]
P. aeruginosa expressing IMP-1, efflux − (MB9799) MITC95 [1]: 1.563 µM
pIC50 [2]: 9.45
pIC50 [3]: 10.23
Escherichia coli expressing NDM-1 (CLB30016) MITC95 [4]: 1.563 µM
Klebsiella pneumoniae expressing VIM-1 (IHMA599644) MITC95 [5]: 3.125 µM
Serratia marcescens expressing IMP-1 (CL5741) MITC95 [6]: 1.563 µM
P. aeruginosa expressing IMP-1, efflux + (MB9798) MITC95 [7]: 1.563 µM
pIC50 [8, 11]: 9.70
Efflux ratio [9, 10]: 1.00

NS(=O)(=O)c1ccc(-c2ccc(S(=O)(=O)N[C@@H]3CCNC3)c(S(N)(=O)=O)c2-c2nnn[nH]2)cc1 [Example 135, (R)-N4-(pyrrolidin-3-yl)-2-(1H-tetrazol-5-yl)-[1,1′-biphenyl]-3,4,4′-trisulfonamide]
P. aeruginosa expressing IMP-1, efflux − (MB9799) MITC95 [1]: 0.7813 µM
pIC50 [2]: 9.64
pIC50 [3]: 9.87
Escherichia coli expressing NDM-1 (CLB30016) MITC95 [4]: 1.563 µM
Klebsiella pneumoniae expressing VIM-1 (IHMA599644) MITC95 [5]: 1.563 µM
Serratia marcescens expressing IMP-1 (CL5741) MITC95 [6]: 1.563 µM
P. aeruginosa expressing IMP-1, efflux + (MB9798) MITC95 [7]: 0.7813 µM
pIC50 [8, 11]: 9.97
Efflux ratio [9, 10]: 1.00

Nc1ccc(-c2ccc(S(=O)(=O)NC[C@@H]3CCNC3)c(S(N)(=O)=O)c2-c2nn[nH]n2)cn1 [Example 491, (R)-4-(6-aminopyridin-3-yl)-N1-(pyrrolidin-3-ylmethyl)-3-(2H-tetrazol-5-yl)benzene-1,2-disulfonamide]
Concentration of metallo-β-lactamase inhibitor which restores susceptibility of efflux − (MB9799) strain to imipenem [1]: 0.7813
pIC50 [2]: 9.57
pIC50 [3]: 10.03
Escherichia coli MITC95 [4]: 0.1953 µM
Klebsiella pneumoniae MITC95 [5]: 1.563 µM
Serratia marcescens MITC95 [6]: 0.7813 µM
Concentration of metallo-β-lactamase inhibitor which restores susceptibility of efflux + (MB9798) strain to imipenem [7]: 0.7813
pIC50 [8, 11]: 9.88
Efflux ratio [9, 12]: 1.00

Nc1nc2c(-c3ccc(S(=O)(=O)N4CC[C@@H](N)C4)c(S(N)(=O)=O)c3-c3nnn[nH]3)cccc2s1 [Example 62, 3-(2-amino-1,3-benzothiazol-4-yl)-6-{[(3R)-3-aminopyrrolidin-1-yl]sulfonyl}-2-(1H-tetrazol-5-yl)benzenesulfonamide]
P. aeruginosa expressing IMP-1, efflux − (MB9799) MITC95 [1]: 1.563 µM
pIC50 [2]: 8.89
pIC50 [3]: 9.07
Escherichia coli expressing NDM-1 (CLB30016) MITC95 [4]: 3.125 µM
Klebsiella pneumoniae expressing VIM-1 (IHMA599644) MITC95 [5]: 3.125 µM
Serratia marcescens expressing IMP-1 (CL5741) MITC95 [6]: 1.563 µM
P. aeruginosa expressing IMP-1, efflux + (MB9798) MITC95 [7]: 1.563 µM
pIC50 ([8]; VIM-1 IC50, fluorescence assay): 8.79
Efflux ratio [9, 10]: 1.00

Cn1c(N)nc2c(-c3ccc(S(=O)(=O)N[C@H]4CC[N+](C)(C)C4)c(S(N)(=O)=O)c3-c3nn[n-]n3)cccc21 [Example 167, (S)-5-(6-(2-amino-1-methyl-1H-benzo[d]imidazol-4-yl)-3-(N-(1,1-dimethylpyrrolidin-1-ium-3-yl)sulfamoyl)-2-sulfamoylphenyl)tetrazol-2-ide]
P. aeruginosa expressing IMP-1, efflux − (MB9799) MITC95 [1]: 1.563 µM
pIC50 [2]: 9.46
pIC50 [3]: 10.23
Escherichia coli expressing NDM-1 (CLB30016) MITC95 [4]: 1.563 µM
Klebsiella pneumoniae expressing VIM-1 (IHMA599644) MITC95 [5]: 3.125 µM
Serratia marcescens expressing IMP-1 (CL5741) MITC95 [6]: 1.563 µM
P. aeruginosa expressing IMP-1, efflux + (MB9798) MITC95 [7]: 3.125 µM
pIC50 ([8]; VIM-1 IC50, fluorescence assay): 9.77
Efflux ratio [9, 10]: 2.00

NC[C@@H](N)CNS(=O)(=O)c1ccc(-c2cccc3[nH]c(N)nc23)c(-c2nn[nH]n2)c1S(N)(=O)=O [Example 375, (R)-4-(2-amino-1H-benzo[d]imidazol-4-yl)-N1-(2,3-diaminopropyl)-3-(2H-tetrazol-5-yl)benzene-1,2-disulfonamide]
P. aeruginosa expressing IMP-1, efflux − (MB9799) MITC95 [1]: 1.563 µM
pIC50 [2]: 9.22
pIC50 [3]: 10.23
Escherichia coli MITC95 [4]: 0.3906 µM
Klebsiella pneumoniae MITC95 [5]: 1.563 µM
Serratia marcescens MITC95 [6]: 1.563 µM
P. aeruginosa expressing IMP-1, efflux + (MB9798) MITC95 [7]: 1.563 µM
pIC50 ([8]; VIM-1 IC50, fluorescence assay): 9.63
Efflux ratio [9, 10]: 1.00

Nc1ccc(-c2ccc(S(=O)(=O)NC[C@H]3CCNC3)c(S(N)(=O)=O)c2-c2nn[nH]n2)cn1 [Example 484, (S)-4-(6-aminopyridin-3-yl)-N1-(pyrrolidin-3-ylmethyl)-3-(2H-tetrazol-5-yl)benzene-1,2-disulfonamide]
Concentration of metallo-β-lactamase inhibitor which restores susceptibility of efflux − (MB9799) strain to imipenem [1]: 0.7813
pIC50 [2]: 9.60
pIC50 [3]: 9.99
Escherichia coli MITC95 [4]: 0.1953 µM
Klebsiella pneumoniae MITC95 [5]: 3.125 µM
Serratia marcescens MITC95 [6]: 0.3906 µM
Concentration of metallo-β-lactamase inhibitor which restores susceptibility of efflux + (MB9798) strain to imipenem [7]: 0.7813
pIC50 [8, 11]: 9.88
Efflux ratio [9, 12]: 1.00

NCC(CN)NS(=O)(=O)c1ccc(-c2ccnc(-c3cnc(N)[nH]3)c2)c(-c2nnn[nH]2)c1S(N)(=O)=O [Example 437, 4-(2-(2-Amino-1H-imidazol-5-yl)pyridin-4-yl)-N^1-(1,3-diaminopropan-2-yl)-3-(1H-tetrazol-5-yl)benzene-1,2-disulfonamide]
Concentration of metallo-β-lactamase inhibitor which restores susceptibility of efflux − (MB9799) strain to imipenem [1]: 0.7813
pIC50 [2]: 8.62
pIC50 [3]: 8.93
Escherichia coli MITC95 [4]: 0.7813 µM
Klebsiella pneumoniae MITC95 [5]: 3.125 µM
Serratia marcescens MITC95 [6]: 3.125 µM
Concentration of metallo-β-lactamase inhibitor which restores susceptibility of efflux + (MB9798) strain to imipenem [7]: 1.563
pIC50 ([8]; VIM-1 IC50, fluorescence assay): 9.02
Efflux ratio [9, 12]: 2.00

NS(=O)(=O)c1c(S(=O)(=O)N2CCNCC2)ccc(-c2cccc3cn[nH]c23)c1-c1nnn[nH]1 [Example 160, 3-(1H-indazol-7-yl)-6-(piperazin-1-ylsulfonyl)-2-(1H-tetrazol-5-yl)benzenesulfonamide]
P. aeruginosa expressing IMP-1, efflux − (MB9799) MITC95 [1]: 1.563 µM
pIC50 [2]: 8.86
pIC50 [3]: 9.22
Escherichia coli expressing NDM-1 (CLB30016) MITC95 [4]: 3.125 µM
Klebsiella pneumoniae expressing VIM-1 (IHMA599644) MITC95 [5]: 3.125 µM
Serratia marcescens expressing IMP-1 (CL5741) MITC95 [6]: 1.563 µM
P. aeruginosa expressing IMP-1, efflux + (MB9798) MITC95 [7]: 6.25 µM
pIC50 [8, 11]: 8.97
Efflux ratio [9, 10]: 4.00

Nc1nc2c(-c3ccc(S(=O)(=O)NC[C@H](N)CO)c(S(N)(=O)=O)c3-c3nn[nH]n3)cccc2[nH]1 [Example 191, 4-(2-amino-1H-benzo[d]imidazol-4-yl)-N^1—((S)-2-amino-3-hydroxypropyl)-3-(2H-tetrazol-5-yl)benzene-1,2-disulfonamide]
P. aeruginosa expressing IMP-1, efflux − (MB9799) MITC95 [1]: 0.4453 µM
pIC50 [2]: 9.36
pIC50 [3]: 10.33
Escherichia coli expressing NDM-1 (CLB30016) MITC95 [4]: 0.25 µM
Klebsiella pneumoniae expressing VIM-1 (IHMA599644) MITC95 [5]: 0.8906 µM
Serratia marcescens expressing IMP-1 (CL5741) MITC95 [6]: 0.8906 µM
P. aeruginosa expressing IMP-1, efflux + (MB9798) MITC95 [7]: 0.4453 µM
pIC50 [8, 11]: 9.76
Efflux ratio [9, 10]: 1.00
